Measurements as given in a melting point compilation (Tetko et al.; mined from patent text by program, amines drawn as free bases though some values may be those of a salt).

Structure (SMILES)	melting point [°C]
COc1ccc(N2CCN(c3c(C)c4c(c(OC(C)C)c3C)OC(C)C4)CC2)cc1 (stereo not given)	110 to 112
Cn1c(Cl)c(C(=O)O)c2ccc(Cl)cc21	243 to 245
CC(C)(C)OC(=O)C[C@@H](NC(=O)/C=C/S(=O)(=O)c1ccccc1)C(=O)OC(C)(C)C	168 to 169
CC(C)(C)C(=O)c1occc1C(=O)O	85 to 89
FC(F)(F)CNC(=S)NCc1ccc(OC(F)(F)F)cc1	94.7 to 96.4
CCCCc1ccc(C2(O)CN3CCC2CC3)o1 (stereo not given)	94 to 96
Cc1cc2c(cc1CN1CCN(C)CC1)-c1[nH]nc(-c3ccsc3)c1C2	210 to 212
Fc1cc(Cl)ccc1-n1nc2c(c1Cl)CSCC2	97 to 99
Nc1cnc2c(c1)[nH]c(=O)n2-c1ccccc1F	220 to 221
CC(=O)c1cc(CS(C)=O)ccc1O (stereo not given)	95 to 97
N#CC(=NO)C1CCCOC1 (stereo not given)	46 to 50
CC(=O)C1CCC2C3CCC4CC(O)C(Cl)CC4(C)C3C(=O)CC12C (stereo not given)	185 to 189
CCOC(=O)C(C)Oc1ncn(-c2ccc(Br)cc2)n1 (stereo not given)	64 to 66
O=C(O)/C=C/C=C(c1cccc(Cl)c1)c1cccc(Cl)c1	142 to 145
CCCCc1nc2c(N)nc3ccc(O)cc3c2n1CCCCNS(C)(=O)=O	223 to 227
CN(C)C(C)(C)c1ccc(-c2nc(Nc3ccc(F)cc3)ncc2C#N)cc1	179
CN1CCN(c2cccc3c2C[C@H](NC(=O)c2ccc(C(F)(F)F)cc2)CC3)CC1	203 to 204
CC(C)(C#N)c1ccc(C#N)cc1	122 to 123
COc1ccc(Nc2cc(NC(C)C)ncn2)cc1	180 to 182
O=[N+]([O-])c1cnc2ccc(Cl)cc2c1Cl	118 to 120
CC(=O)NS(=O)(=O)c1cncc([N+](=O)[O-])c1	176 to 178
Cc1[nH]c(C=O)c(C)c1CCO	125 to 127
CC(C)CC12CCC3C4CCC(=O)C=C4CCC3C1CCC2O (stereo not given)	124 to 126
COc1ccc2sc(=NN3C(=O)CSC3=S)sc2c1	254 to 255

Structure (SMILES)	melting point [°C]
COc1c2c(c(OC)c(OC)c1OC)CCC(CCOc1cccnc1)CC2	111 to 113
CNC(=O)N=c1ccc(C)cn1-c1cccc(C(F)(F)F)c1	114
CCOc1nccc(-c2c(-c3ccc(F)cc3)ncn2[C@H]2CC[C@H](O)CC2)n1	184 to 186
O=C(NCC12CC3CC(CC(C3)C1)C2)c1cc(F)ccc1Br	143 to 144
Clc1nc(Cl)nc(Oc2ccccc2)n1	113 to 114
COc1ccc2ccc(N3C(=O)c4ccccc4C3OC(=O)N3CCN(C)CC3)nc2n1 (stereo not given)	218
CN(C)CCC1CSc2c(C(=O)O)c(=O)c3cc(F)c(N4CCN(C)CC4)cc3n21 (stereo not given)	221 to 223
O=C1CCCC(c2ccc(O)c(O)c2)N1c1ccc(Cl)cc1 (stereo not given)	205 to 207
O=[N+]([O-])c1ccc(SSc2ncccn2)c(C(Cl)(Cl)Cl)c1	98 to 99
COc1cc2ccc(C(=O)CBr)cc2cc1OC	120 to 122
CCCCCN(CCC12CC3CC(CC(C3)C1)C2)C(=O)NCc1ccccn1	87.5 to 92
CC1CCC2(C)C(=CCC3C4CC(O)C(=O)C4(C)CCC32)C1 (stereo not given)	166 to 168
CCC(C)COc1ccc(-c2ccc(O)cc2)cc1 (stereo not given)	80.5
CC(O)=C(C#N)C(=O)Nc1cccc(F)c1	136 to 138
CC(=O)OCC1OC(OC(C)=O)C(O)C(OC(C)=O)C1OC(C)=O (stereo not given)	163 to 165
CNC#CCC1=Cc2ccccc2Sc2ccc(Cl)cc21	92 to 94
CCCCNc1cc(Cl)nnc1NN	170 to 172
CC(C)Cc1ccc2c([N+](=O)[O-])c(O)c(O)cc2c1	105 to 108
CCOC(=O)c1ncc2[nH]c3ccc(C(=O)N4CCCCC4)cc3c2c1C	212 to 218
CC(C)(NS(=O)(=O)c1ccccc1)c1ccccc1	114 to 115
CC1N=C(c2ccccc2F)c2cc(I)ccc2NC1=O (stereo not given)	211
CCCc1c(O)ccc2ccc(C(=O)OCC)cc12	114 to 115
N#Cc1ccc(C(=C2C3CC4CC(C3)CC2C4)c2nc[nH]n2)cc1	105
O=C(Cl)N1CC(Oc2cccc(Br)c2)C1	87 to 88

Structure (SMILES)	melting point [°C]
O=[N+]([O-])c1ccc(F)c(-c2ccccn2)c1F	84 to 86
O=C(O)Cc1cc([N+](=O)[O-])ccc1Oc1ccc(F)cc1	129 to 130
O=C(c1ccc(F)cc1)c1cc(F)ccc1OCCCCl	60
CSc1cc(C)nc(SC)c1NC(=O)CCCCCCSc1nc2cccc(C(F)(F)F)c2o1	129 to 131
Cc1ccc(C(=O)NC(NC(=S)Nc2cc(F)ccc2F)C(F)(F)F)cc1 (stereo not given)	183 to 185
COC(=O)Nc1cn2nc(OCc3cc(OC)c(OC)c(OC)c3)ccc2n1	213 to 215
CCOC(=O)N1CCC(C(=O)Cl)CC1	96 to 98
COc1cc2c(cc1O)CCN(Cc1cccc(O)c1)C2	177 to 178
CCOC(=O)c1c(C(F)(F)F)nc2c(C(F)(F)F)cccc2c1O	68
CN(C)C=Nc1nc(OCc2ccc(F)cc2)ncc1F	113 to 115
O=C(Nc1ccc(-n2nc(C(F)(F)F)cc2C(F)(F)F)cc1)c1cc(F)c(Cl)cc1F	160 to 162
O=C(NC1CC2C=CC1C2)n1cc(F)c(=O)[nH]c1=O (stereo not given)	180
Nc1cccc(S(=O)(=O)NC2(CO)CCCC2)c1	130 to 132
CNc1nnc(C(C)(CCl)CCl)s1	105 to 107
CCCCOc1cc(CCS(N)(=O)=O)n(Cc2ccc(Cl)cc2Cl)n1	134 to 136
COc1cccc(C2(C(N)=O)CCC3(CC2)OCCO3)c1	135 to 138
CC(C)(C)c1cc(-c2c[nH]c(=S)[nH]2)cc(C(C)(C)C)c1O	168 to 170
NC(=O)N(O)CCOCc1ccoc1	99 to 101
COc1cc2c(cc1OC)CCC(C(=O)O)=C2	191 to 194
CCN(CC)c1nsc(N)c1C#N	87 to 88
C[C@]1(CN2CCN(C(=O)N3CC=C(c4ccc(Cl)cc4)CC3)CC2)Cn2cc([N+](=O)[O-])nc2O1	161 to 162
O=C(C(Br)c1ccc(Cl)cc1)C1(c2ccc(Cl)c(Cl)c2)CCC1 (stereo not given)	109 to 110

Results, then the compound that gave them:

melting point [°C]	Structure (SMILES)
115	N#Cc1ccc(OCCc2coc(-c3ccccc3)n2)cc1
180	Cc1nc2ccc3ccc(CNc4ccc5c(c4)CN([C@@H](CCC(=O)O)C(=O)N[C@@H](Cc4ccccc4)C(=O)O)C5=O)cc3c2c(=O)[nH]1
252 to 254	CCCOc1cc2ccccc2c2c(=O)c(-c3ccoc3)c[nH]c12
181 to 183	O=C(O)c1ccc(C(=O)N2CCCc3ccccc32)cc1
216 to 219	Cc1c(O)ccc2c(-c3ccccc3F)noc12
142	COc1cccc(OC)c1-c1ccc(C[C@H](NC(=O)c2c(Cl)cc(-c3nccs3)cc2Cl)C(=O)O)cc1
130	O=C(/C=C/C=C(c1cccc(F)c1)c1cccc(F)c1)Oc1ccc([N+](=O)[O-])cc1
140 to 142	Cc1cccc(-c2[nH]c(C(C)C)nc2-c2cccc(-c3cccc(F)c3)c2)n1
154 to 156	CCOC(=O)Cc1ccc(NC(=O)C(COc2ccc(Cl)cc2)NS(=O)(=O)c2ccc(Br)cc2)cc1 (racemic)
222 to 223	CNC(=O)C(CNC(=O)c1ccccc1)NC(=O)OC(C)(C)C (stereo not given)
93.5 to 95.6	CC(C)CCN(CC(O)C(Cc1ccccc1)NC(=O)C(CC(N)=O)NC(=O)c1ccc2ccccc2n1)C(=O)NC(C)(C)C (stereo not given)
160 to 161	CCOC(=O)c1cn(-c2ccccc2)nc1OCc1ccc(OCc2nc(-c3ccccc3)oc2C)c(OC)c1
> 400	O=C(O)c1ccc2c(=O)c3cc(C(=O)O)ccc3oc2c1
249 to 250	Cc1ccnc(Nc2nc(-c3ccccc3O)cs2)c1
150 to 151	C=C(C)c1nc(CCC)n(Cc2ccc(-c3ccccc3C(=O)C(=O)O)cc2)c1C(=O)O
213 to 215	Cc1ccc(S(=O)(=O)Nc2cc3c(c(C(=O)O)c2)NCCO3)cc1
88	CC(C)OC(=O)NC12CC1CN(Cc1ccccc1)C2 (stereo not given)
68 to 70	S=Cc1cccc(Cl)c1Cc1ccccc1

melting point [°C]	Structure (SMILES)
155 to 157	CC(C)(C)OC(=O)N1CCC(Cc2cn(S(=O)(=O)c3ccccc3)c3ccc(F)cc23)CC1
237 to 239	CNC(=O)c1cc2c(nc(C)n2C)c2c1CCC(OC)(c1ccccc1)O2 (stereo not given)
166 to 167	Cc1nn(CC(C)(C)O)c(-c2ccc(F)cc2)c1-c1ccc2c(c1)NC(=O)CO2
116 to 117	CC(=O)c1ccc(OCCCN2CCC(C(O)(c3ccc(F)cc3)c3ccc(F)cc3)CC2)c(C)c1
165 to 166	Cn1cc(CNC(=O)c2ccnc(N3CCN(Cc4ccc(F)cc4)C3=O)c2)cn1
235 to 238	CC(C)CNC(=O)Nc1c(C(=O)c2ccccc2)[nH]c2cc(Cl)ccc12
180 to 181	O=C(Nc1ccccc1C(F)(F)F)c1cc(-c2ccc(F)cc2F)ccc1O
184 to 186	CN1C(=O)C(C)(C)c2ccc(C(=O)Nc3ccccc3)cc21
97 to 98	c1ccc(COc2ccc(CCCCn3ccnc3)cc2)cc1
135 to 137	Clc1ccc(-c2c(Cc3nc4ccccc4s3)cnn2-c2ccccc2)cc1
167 to 169	CCOC(=O)c1nc(Nc2ccccc2)sc1-c1ccncc1
109 to 111	COc1ccc(-c2nn(CC=Cc3ccc(Cl)cc3)c(=O)cc2-c2ccc(OC)c(F)c2)cc1
127 to 131	CCCCCCCn1c(C)c(CC(=O)O)c2cc(OCc3ccc4ccccc4n3)ccc21
185 to 187	Cc1nc(N2CCN(Cc3csc4ccc(Cl)cc34)C2=O)sc1C(=O)NCc1cccnc1
148 to 149	COc1ccc(CCOc2cc(-c3cccc(C(=O)O)c3)ccn2)cc1OC
154 to 157	COC(=O)C(Cc1ccc(C#N)cc1)C(=O)c1ccc(C#N)cc1 (stereo not given)
170 to 174	NS(=O)(=O)c1cc(CCNC(=O)/C=C/c2cccs2)ccc1OCCc1ccccc1
